In PubChem BioAssay AID330 (DTP/NCI, 2004):
Values joined by “and” are separate entries in the source; they are usually repeats but may differ in a detail not shown here. Equal values may be shown once. Toxic doses and inconclusive results are not listed. How the source made its calls: active means survival T/C of 150% or more; inactive means T/C below 125% in these data.

Tested on: P388 leukemia ip, CD2F1 mice, survival T/C
Assay: NCI In Vivo Anticancer Drug Screen. Data for tumor model P388 Leukemia (intraperitoneal) in CD2F1 (CDF1) mice
Settings: endpoint: median survival time, higher = longer survival
Procedure, shortened: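 Mice carrying the transplanted tumor received test compound or vehicle. Survival was recorded in each group, and the value is the treated-group measurement divided by that of the vehicle-treated control group.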

[1] = dose: 60.0 mg/kg/injection, schedule: Q01DX005 (ip), vehicle: saline with Tween-80
[2] = dose: 120.0 mg/kg/injection, schedule: Q01DX005 (ip), vehicle: saline with Tween-80
[3] = dose: 240.0 mg/kg/injection, schedule: Q01DX005 (ip), vehicle: saline with Tween-80
[4] = dose: 50.0 mg/kg/injection, schedule: Q01DX005 (ip), vehicle: Klucel (hydroxypropylcellulose) (HPC)
[5] = dose: 100.0 mg/kg/injection, schedule: Q01DX005 (ip), vehicle: Klucel (hydroxypropylcellulose) (HPC)

Measured: T/C

O=C(O)/C=N/NS(=O)(=O)/C=C/c1ccccc1
active: dose: 25.0 mg/kg/injection, schedule: Q01DX009 (ip), vehicle: distilled water + Tween-80 166 % of control | dose: 50.0 mg/kg/injection, schedule: Q01DX009 (ip), vehicle: distilled water + Tween-80 172 % of control
inactive: dose: 100.0 mg/kg/injection, schedule: Q01DX009 (ip), vehicle: distilled water + Tween-80 112 % of control

NC(=S)N/N=C/c1c(-c2ccc(Cl)cc2)nc2n1CCS2
inactive: dose: 100.0 mg/kg/injection, schedule: Q01DX001 (ip), vehicle: Klucel (hydroxypropylcellulose) (HPC) 97 % of control | dose: 200.0 mg/kg/injection, schedule: Q01DX001 (ip), vehicle: Klucel (hydroxypropylcellulose) (HPC) 100 % of control | dose: 400.0 mg/kg/injection, schedule: Q01DX001 (ip), vehicle: Klucel (hydroxypropylcellulose) (HPC) 97 % of control

CN1C(NN)=NS(=O)(=O)c2ccccc21
inactive: [1] 106 % of control | [2] 103 % of control | [3] 106 % of control

O=C1C(C(=Nc2cccc(Br)c2)c2ccccc2)=C(O)c2ccccc21
inactive: dose: 25.0 mg/kg/injection, schedule: Q04DX002 (ip), vehicle: saline with Tween-80 96 % of control | dose: 50.0 mg/kg/injection, schedule: Q04DX002 (ip), vehicle: saline with Tween-80 100 % of control | dose: 100.0 mg/kg/injection, schedule: Q04DX002 (ip), vehicle: saline with Tween-80 99 % of control

Oc1ccccc1O
inactive: dose: 3.12 mg/kg/injection, schedule: Q01DX009 (ip), vehicle: saline 112 % of control | dose: 6.25 mg/kg/injection, schedule: Q01DX009 (ip), vehicle: saline 104 % of control | dose: 12.5 mg/kg/injection, schedule: Q01DX009 (ip), vehicle: saline 105 % of control | dose: 25.0 mg/kg/injection, schedule: Q01DX009 (ip), vehicle: saline 105 % of control | dose: 50.0 mg/kg/injection, schedule: Q01DX009 (ip), vehicle: saline 105 % of control and 106 % of control and 107 % of control

Cc1ccc2ccccc2c1C(=N)c1cc2ccccc2c2ccccc12
inactive: [4] 105 % of control | [5] 87 % of control

Cc1ccc(C)c2c1[nH]c1c(C)c3ccncc3c(C)c12
inactive: dose: 100.0 mg/kg/injection, schedule: Q01DX001 (ip), vehicle: saline with Tween-80 100 % of control | dose: 200.0 mg/kg/injection, schedule: Q01DX001 (ip), vehicle: saline with Tween-80 104 % of control | dose: 400.0 mg/kg/injection, schedule: Q01DX001 (ip), vehicle: saline with Tween-80 120 % of control

O/N=C/C(=Nc1ccccc1N=C(/C=N/O)NO)NO
inactive: [1] 95 % of control | [2] 103 % of control | [3] 94 % of control

CCC(C)Sc1nc(N)nc2c1ncn2C1OC(CO)C(O)C1O (configuration not stated)
inactive: dose: 44.0 mg/kg/injection, schedule: Q01DX009 (ip), vehicle: saline with Tween-80 100 % of control | dose: 66.0 mg/kg/injection, schedule: Q01DX009 (ip), vehicle: saline with Tween-80 100 % of control | dose: 100.0 mg/kg/injection, schedule: Q01DX009 (ip), vehicle: saline with Tween-80 95 % of control | dose: 150.0 mg/kg/injection, schedule: Q01DX009 (ip), vehicle: saline with Tween-80 104 % of control | dose: 176.0 mg/kg/injection, schedule: Q04DX003 (ip), vehicle: saline with Tween-80 114 % of control | dose: 200.0 mg/kg/injection, schedule: Q01DX009 (ip), vehicle: saline with Tween-80 120 % of control | dose: 264.0 mg/kg/injection, schedule: Q04DX003 (ip), vehicle: saline with Tween-80 123 % of control

COc1cc(C(=O)NC(=S)Nc2csc(-c3ccc(F)cc3)n2)cc(OC)c1OC
inactive: [4] 100 % of control | [5] 94 % of control | dose: 200.0 mg/kg/injection, schedule: Q01DX005 (ip), vehicle: Klucel (hydroxypropylcellulose) (HPC) 90 % of control

COC(=O)N1c2ccccc2C(c2ccccc2)=NC1C#N (configuration not stated)
inactive: dose: 7.5 mg/kg/injection, schedule: Q01DX005 (ip), vehicle: saline with Tween-80 103 % of control | dose: 15.0 mg/kg/injection, schedule: Q01DX005 (ip), vehicle: saline with Tween-80 112 % of control | dose: 30.0 mg/kg/injection, schedule: Q01DX005 (ip), vehicle: saline with Tween-80 103 % of control

O=C(O)CCC(=O)C1=CSC(=C2SC=CS2)S1
inactive: dose: 60.0 mg/kg/injection, schedule: Q01DX005 (ip), vehicle: Klucel + Tween-80 106 % of control

COc1cc2oc(=O)cc(C)c2cc1N=C=S
inactive: dose: 50.0 mg/kg/injection, schedule: Q04DX003 (ip), vehicle: suspension in saline 100 % of control | dose: 100.0 mg/kg/injection, schedule: Q04DX003 (ip), vehicle: suspension in saline 100 % of control | dose: 200.0 mg/kg/injection, schedule: Q04DX003 (ip), vehicle: suspension in saline 92 % of control
